Tested on: 354836-022-R-J1-PDC multicell spheroid viability
Assay: Anticancer human tumor 354836-022-R-J1-PDC patient-derived head and neck squamous cell carcinoma cell line growth inhibition [PI3K]
Details: for IC50: curve of first compound; for viability, T/C: stronger effect = lower value
How it was run: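 Three cell types, namely tumor cells, endothelial cells and mesenchymal stem cells, formed each spheroid. Combinations with four PI3K inhibitors were screened at clinically achievable concentrations decreasing by half-log, and spheroid viability was recorded.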

[1] = second compound 0.00316 µM, first compound 0.0316 µM
[2] = second compound 0.00316 µM, first compound 0.1 µM
[3] = second compound 0.00316 µM, first compound 0.316 µM
[4] = second compound 0.00316 µM, first compound 1 µM
[5] = second compound 0.00316 µM, first compound 3.16 µM
[6] = second compound 0.00316 µM, first compound 10 µM
[7] = second compound 0.01 µM, first compound 0.0316 µM
[8] = second compound 0.01 µM, first compound 0.1 µM
[9] = second compound 0.01 µM, first compound 0.316 µM
[10] = second compound 0.01 µM, first compound 1 µM
[11] = second compound 0.01 µM, first compound 3.16 µM
[12] = second compound 0.01 µM, first compound 10 µM
[13] = second compound 0.0316 µM, first compound 0.0316 µM
[14] = second compound 0.0316 µM, first compound 0.1 µM
[15] = second compound 0.0316 µM, first compound 0.316 µM
[16] = second compound 0.0316 µM, first compound 1 µM
[17] = second compound 0.0316 µM, first compound 3.16 µM
[18] = second compound 0.0316 µM, first compound 10 µM
[19] = second compound 0.1 µM, first compound 0.0316 µM
[20] = second compound 0.1 µM, first compound 0.1 µM
[21] = second compound 0.1 µM, first compound 0.316 µM
[22] = second compound 0.1 µM, first compound 1 µM
[23] = second compound 0.1 µM, first compound 3.16 µM
[24] = second compound 0.1 µM, first compound 10 µM
[25] = second compound 0.316 µM, first compound 0.0316 µM
[26] = second compound 0.316 µM, first compound 0.1 µM
[27] = second compound 0.316 µM, first compound 0.316 µM
[28] = second compound 0.316 µM, first compound 1 µM
[29] = second compound 0.316 µM, first compound 3.16 µM
[30] = second compound 0.316 µM, first compound 10 µM
[31] = second compound 1 µM, first compound 0.0316 µM
[32] = second compound 1 µM, first compound 0.1 µM
[33] = second compound 1 µM, first compound 0.316 µM
[34] = second compound 1 µM, first compound 1 µM
[35] = second compound 1 µM, first compound 3.16 µM
[36] = second compound 1 µM, first compound 10 µM
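Note: spheroids exposed to agents for seven days before the viability read.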

`C=CC(=O)N1CCN(c2nc(=O)n(-c3c(C)ccnc3C(C)C)c3nc(-c4c(O)cccc4F)c(F)cc23)C(C)C1` (stereo unspecified) + COc1c(OCCCN2CCOCC2)ccc2c3n(c(=NC(=O)c4cnc(N)nc4)nc12)CCN3 showed an IC50 (second compound 0.00316 µM) greater than 10000 nM, an IC50 (second compound 0.01 µM) greater than 10000 nM and an IC50 (second compound 0.0316 µM) greater than 10000 nM. The IC50 (second compound 0.1 µM) was greater than 10000 nM, the IC50 (second compound 0.316 µM) was less than 31.6 nM and the IC50 (second compound 1 µM) was less than 31.6 nM. For the same compound, the viability, T/C [1] was 96.3%, the viability, T/C [2] was 106% and the viability, T/C [3] was 109%. The viability, T/C [4] was 108%, the viability, T/C [5] was 118% and the viability, T/C [6] was 116%. The viability, T/C [7] was 97.7%, the viability, T/C [8] was 99% and the viability, T/C [9] was 98.5%. For the same compound, the viability, T/C [10] was 102%, the viability, T/C [11] was 105% and the viability, T/C [12] was 90.4%. The viability, T/C [13] was 83.2%, the viability, T/C [14] was 83.5% and the viability, T/C [15] was 72%. It also gave a viability, T/C [16] of 82.6%, a viability, T/C [17] of 110% and a viability, T/C [18] of 95.4%. For the same compound, the viability, T/C [19] was 61.4%, the viability, T/C [20] was 45.3% and the viability, T/C [21] was 59.2%. It also gave a viability, T/C [22] of 62.8%, a viability, T/C [23] of 61.5% and a viability, T/C [24] of 55.6%. The viability, T/C [25] was 14.3%, the viability, T/C [26] was 16.2% and the viability, T/C [27] was 16.2%. For the same compound, the viability, T/C [28] was 18.4%, the viability, T/C [29] was 25.9% and the viability, T/C [30] was 13%. It also gave a viability, T/C [31] of 1.79%, a viability, T/C [32] of 1.75% and a viability, T/C [33] of 1.72%. The viability, T/C [34] was 2.49%, the viability, T/C [35] was 1.82% and the viability, T/C [36] was 1.3%.
`Cn1ncc(Cl)c1-c1cc(C(=O)NC(CN)Cc2cccc(F)c2)sc1Cl` (stereo unspecified) + COc1c(OCCCN2CCOCC2)ccc2c3n(c(=NC(=O)c4cnc(N)nc4)nc12)CCN3 was tested, and the IC50 (second compound 0.00316 µM) was 148 nM, the IC50 (second compound 0.01 µM) was 220 nM and the IC50 (second compound 0.0316 µM) was 116 nM. The IC50 (second compound 0.1 µM) was less than 31.6 nM, the IC50 (second compound 0.316 µM) was less than 31.6 nM and the IC50 (second compound 1 µM) was less than 31.6 nM. The viability, T/C [1] was 78%, the viability, T/C [2] was 56% and the viability, T/C [3] was 37.3%. The viability, T/C [4] was 23.2%, the viability, T/C [5] was 8.77% and the viability, T/C [6] was 1.45%. It also gave a viability, T/C [7] of 73%, a viability, T/C [8] of 74.2% and a viability, T/C [9] of 37.2%. It also gave a viability, T/C [10] of 19%, a viability, T/C [11] of 8.38% and a viability, T/C [12] of 1.92%. For the same compound, the viability, T/C [13] was 66.7%, the viability, T/C [14] was 52.8% and the viability, T/C [15] was 33.1%. It also gave a viability, T/C [16] of 16.1%, a viability, T/C [17] of 8.7% and a viability, T/C [18] of 2.85%. The viability, T/C [19] was 45.2%, the viability, T/C [20] was 33.6% and the viability, T/C [21] was 20.1%. The viability, T/C [22] was 8.6%, the viability, T/C [23] was 2.88% and the viability, T/C [24] was 0.98%. The viability, T/C [25] was 14.4%, the viability, T/C [26] was 10.3% and the viability, T/C [27] was 5.2%. It also gave a viability, T/C [28] of 2.69%, a viability, T/C [29] of 3.48% and a viability, T/C [30] of 1.06%. For the same compound, the viability, T/C [31] was 1.56%, the viability, T/C [32] was 1.83% and the viability, T/C [33] was 1.63%. For the same compound, the viability, T/C [34] was 2.2%, the viability, T/C [35] was 1.8% and the viability, T/C [36] was 1.4%.
`Cn1nccc1Nc1nccc(-c2ccn(C(CO)c3ccc(Cl)c(F)c3)c(=O)c2)n1` (stereo unspecified) + COc1c(OCCCN2CCOCC2)ccc2c3n(c(=NC(=O)c4cnc(N)nc4)nc12)CCN3 was tested, and the IC50 (second compound 0.00316 µM) was greater than 10000 nM, the IC50 (second compound 0.01 µM) was greater than 10000 nM and the IC50 (second compound 0.0316 µM) was greater than 10000 nM. The IC50 (second compound 0.1 µM) was 73.6 nM, the IC50 (second compound 0.316 µM) was less than 31.6 nM and the IC50 (second compound 1 µM) was less than 31.6 nM. For the same compound, the viability, T/C [1] was 97%, the viability, T/C [2] was 98.1% and the viability, T/C [3] was 94.2%. For the same compound, the viability, T/C [4] was 89.3%, the viability, T/C [5] was 92.1% and the viability, T/C [6] was 82.7%. For the same compound, the viability, T/C [7] was 88.5%, the viability, T/C [8] was 99% and the viability, T/C [9] was 88%. For the same compound, the viability, T/C [10] was 94%, the viability, T/C [11] was 91.9% and the viability, T/C [12] was 97.6%. For the same compound, the viability, T/C [13] was 83.4%, the viability, T/C [14] was 69.7% and the viability, T/C [15] was 76%. For the same compound, the viability, T/C [16] was 84.7%, the viability, T/C [17] was 87.2% and the viability, T/C [18] was 64.2%. It also gave a viability, T/C [19] of 49.1%, a viability, T/C [20] of 49.2% and a viability, T/C [21] of 46.9%. The viability, T/C [22] was 49.6%, the viability, T/C [23] was 44.8% and the viability, T/C [24] was 32.2%. For the same compound, the viability, T/C [25] was 11.8%, the viability, T/C [26] was 11.1% and the viability, T/C [27] was 11.1%. For the same compound, the viability, T/C [28] was 11.4%, the viability, T/C [29] was 6.95% and the viability, T/C [30] was 2.26%. It also gave a viability, T/C [31] of 1.52%, a viability, T/C [32] of 1.16% and a viability, T/C [33] of 1.02%. For the same compound, the viability, T/C [34] was 1.12%, the viability, T/C [35] was 1.77% and the viability, T/C [36] was 0.33%.

Source: PubChem BioAssay AID1963981 (Molecular Pharmacology Branch, DTP, NCI, 2024)
